Here are results for four compounds from patent US20240132522A1, “HETEROCYCLIC COMPOUNDS AND METHODS OF USE THEREOF” (1cBio, Inc., priority 2022, published 2024).

Where a name gives a salt, the structure may show the parent alone. Bounds are passed on as bounds.

Chain of recombinant human PARP2 (Q9UGN5 whole entry): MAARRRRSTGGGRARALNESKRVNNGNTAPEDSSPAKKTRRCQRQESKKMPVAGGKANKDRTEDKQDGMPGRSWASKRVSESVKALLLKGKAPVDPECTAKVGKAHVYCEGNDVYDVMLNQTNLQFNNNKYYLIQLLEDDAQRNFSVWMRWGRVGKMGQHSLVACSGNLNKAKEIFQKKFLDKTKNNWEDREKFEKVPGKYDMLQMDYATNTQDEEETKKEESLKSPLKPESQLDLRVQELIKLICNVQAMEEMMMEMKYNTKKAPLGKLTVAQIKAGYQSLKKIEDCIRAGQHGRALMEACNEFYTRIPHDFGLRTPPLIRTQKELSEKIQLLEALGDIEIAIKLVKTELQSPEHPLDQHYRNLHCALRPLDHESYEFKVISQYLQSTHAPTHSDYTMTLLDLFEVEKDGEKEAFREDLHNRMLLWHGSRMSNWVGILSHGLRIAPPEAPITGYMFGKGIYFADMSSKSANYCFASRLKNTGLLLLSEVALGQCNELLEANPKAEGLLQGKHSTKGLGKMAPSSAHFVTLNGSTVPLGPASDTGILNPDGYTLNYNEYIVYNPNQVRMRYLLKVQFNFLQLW

This assay concerns the target recombinant human PARP2 (Homo sapiens, UniProt Q9UGN5). Briefly: PARP2 fluorescence polarization binding assay. The following applies: binding IC50, GST-tagged PARP2 20 nM, PARPi-FL probe 3 nM, 4 h at RT. How it is done: In some embodiments, the biological assay measures PARP-2 binding by way of fluorescence polarization measurements. In some embodiments, binding of a test compound to recombinant human PARP-2 reduces the amount of binding of a fluorescent probe, and consequently reduces the detected level of fluorescence polarization. […] In some embodiments, the serial dilutions, e.g., 100 nL of serial dilution, 90 nL of serial dilution, 80 nL of serial dilution, 70 nL of serial dilution, 60 nL of serial dilution, 50 nL of serial dilution, 30 nL of serial dilution, 20 nL of serial dilution, or 10 nL of serial dilution, are added to a multi-welled plate, e.g., a 1536-well plate, a 384-well plate, or a 96-well plate. In some embodiments, PARP-2, e.g., GST-tagged PARP-2, is diluted in assay buffer, e.g., 50 μL of assay buffer, 40 μL of assay buffer, e.g., 30 μL of assay buffer, 20 μL of assay buffer, 10 μL of assay buffer, or 5 μL of assay buffer, and is added to the plate. In some embodiments, the plate is centrifuged, e.g., at 1000 rpm for 1 min, and incubated, e.g., incubated for 30 minutes at room temperature (RT). In some embodiments, a fluorescent probe, e.g., 10 μL of 6 nM PARPi-FL (TOCRIS, Cat #6461), is diluted in an assay buffer and is added to the plate. […] In some embodiments, the plate is centrifuged, e.g., at 1000 rpm for 1 minute, and the assay plate is incubated, e.g., for 4 h at RT. In some embodiments, the samples in each well are read using a plate reader, e.g., an Envision instrument using excitation=480 nm, and emission wavelength=FITC FP-P pol 535 nm & FITC FP-S pol 535 nm). […] In some embodiments, binding IC50 values are calculated using XLFit (equation 201: […])^D))), where A=bottom, B=top, C=IC50, and D=slope) with a floating top and bottom for curves. Compounds of the present disclosure were tested in a PARP2 fluorescence polarization binding assay at Pharmaron (Beijing, P.R. China). In this biochemical assay, binding of test compound to recombinant human PARP2 reduces the amount of binding of a fluorescent probe, and consequently reduces the detected level of fluorescence polarization. Test compound stock solutions were prepared in DMSO and then serially diluted into 10 concentrations by 3-fold dilution in a 384-well plate using a TECAN EVO200. […] Samples in each well were read using an Envision instrument (Perkin-Elmer; Ex=480 nm Em=FITC FP-P pol 535 nm & FITC FP-S pol 535 nm). […] Binding IC50 values were calculated using XLFit (equation 201: […])^D))), where A=bottom, B=top, C=IC50, and D=slope) with a floating top and bottom for curves.
With `CCc1cc2ncc(CN3CCCN(c4ccc(C(=O)NC)nc4)CC3)cc2[nH]c1=O` [Compound No. 6, 5-(4-((7-ethyl-6-oxo-5H-1,5-naphthyridin-3-yl)methyl)-1,4-diazepan-1-yl)-N-methylpyridine-2-carboxamide], the IC50 was not below 3 µM.

Turning to `CCc1cc2ncc(CN3CC4CN(c5ccc(C(=O)NC)nc5)CC4C3)cc2[nH]c1=O` (stereo not shown) [Compound No. 7, 5-(5-((7-ethyl-6-oxo-5,6-dihydro-1,5-naphthyridin-3-yl)methyl)hexahydropyrrolo[3,4-c]pyrrol-2(1H)-yl)-N-methylpicolinamide], the IC50 is not below 3 µM.

Turning to `CCc1cc2ncc(CN3CC4(C3)CN(c3ccc(C(=O)NC)nc3)C4)cc2[nH]c1=O` [Compound No. 9, 5-(6-((7-ethyl-6-oxo-5,6-dihydro-1,5-naphthyridin-3-yl)methyl)-2,6-diazaspiro[3.3]heptan-2-yl)-N-methylpicolinamide formate], the IC50 is not below 3 µM.

For `CCc1cc2ncc(CNC3CC(Nc4ccc(C(=O)NC)nc4)C3)cc2[nH]c1=O` (stereo not shown) [Compound No. 29, 5-((3-(((7-ethyl-6-oxo-5,6-dihydro-1,5-naphthyridin-3-yl)methyl)amino)cyclobutyl)amino)-N-methylpicolinamide], the IC50 is not below 3 µM.
